According to patent US20220127297A1, “Novel Antibacterial 3"-Derivatives Of 4,6-Disubstituted 2,5-Dideoxystreptamine Aminoglycoside Antibiotics” (AGILeBiotics B.V., priority 2018, published 2022):
In brackets after ≈: the same amount, converted by molar mass. Like-named read-outs stand apart in the source and are kept apart here.

Test system: E. faecalis DSM 2570
Assay: MIC 50, broth micro-dilution, DSM strains
Assay type: cell-based, Enterococcus faecalis
From the text: 3.2 Against Selected Bacteria of the ESKAPE Panel and Enterococcus faecalis (DSM Strains)
Tested reference compounds. Amikacin sulfate (Cat. No. 01693, Chem-Impex), Gentamicin sulfate (Cat. No. G4918, Sigma Aldrich).
Microbial strains. Enterococcus faecalis DSM 2570, Klebsiella pneumoniae DSM 26371, Acinetobacter baumannii DSM 105126, Enterobacter cloacae 3MRGN (clinical bronchial aspirate isolate).
Culture media and equipment. BBL™ Mueller Hinton Broth 2 (Lot. BCBW1143, Cat. No. 70192, Sigma); Trypcase Soy Blood-agar plates (Cat. No. 43001, Biomérieux); Cryoinstant (contains 15% glycerol; Cat. No. 822070ZA, VWR International); GasPak™ EZ Standard Incubation Container (Cat. No. 260671, Becton Dickinson); GasPak™ EZ Campy Container System Sachets (Cat. No. 260680, Becton Dickinson); 96-well deep well plate, 1 mL (Cat. No. 0030506.200, Eppendorf); Plate lid (Cat. No. 0030131.525, Eppendorf); 96-well plate, F-bottom (Cat. No. 260860, Nunc); Incubator (Sartorius Certomat BS-1); Laminar flow (Heraeus HS12); UV/VIS meter (Perkin Elmer Lambda Bio+); Platereader (Tecan Infinite M200 Pro).
Compound preparation. Compounds were prepared in MH2 media at a concentration of 5 mM and stored at 4° C. For testing, solutions of 128 μM were prepared in MH2, for tests against E. faecalis a solution of 512 μM was prepared. Out of these working solutions, 400 μL was transferred to wells in the first column of 96-well deep well plates. Each compound was transferred in triplicate. Plates were previously filled with 200 μL of MH2 media in all wells except for the wells in the first column. After compound and antibiotic addition, the compounds were serial two-fold diluted by transferring 200 μL from the first to the second column, then from the second to the third column and so on. Finally, 200 μL was removed from the last column.
Inoculum preparation. Microorganisms used were all revived from 15% glycerol storage in Croinstant tubes at −28° C. by plating them on blood agar plates. A. baumanni, and E. cloacae were grown aerobically at 37° C., E. faecalis was grown microaerophilically at 37° C., and K. pneumoniae was grown aerobically at 37° C. Plates were stored at 4° C. for up to two weeks, after which new plates were prepared from −28° C. A single colony was inoculated in MH2 media and grown at 37° C. and 200 rpm to an optical density (measured by UV/Vis spectroscopy) of 0.6-0.8 at 600 nm. Out of these suspensions, actual inoculums were prepared by diluting them to an optical density of 0.1 in MH2 media. From these inoculums, 200 μL was transferred to each well, resulting in a final compound concentration range of 64 μM-31.3 nM for, K. pneumoniae, A. baumanni, and E. cloacae, and 256 μM-125 nM for E. faecalis. Plates inoculated with E. faecalis were placed inside a GasPak™ Container System with GasPak™ Campy Container System sachets. All plates were incubated at 200 rpm for 18 h under the microorganism culturing conditions mentioned above.
MIC determination. After 18 h of growth, 200 μL was transferred to a 96-well F-bottom plate. The optical density was determined by a plate reader at 600 nm, with 10 s shaking before reading. Triplicate measurements were averaged, and a growth curve was plotted in Excel. The first column in which the growth reached half the value of maximum growth was determined as the MIC50 value for that particular compound.
MIC50. The MIC50 of a compound was assigned at which the bacterial growth reached half the value of maximum growth.

[1] = Enterococcus faecalis, DSM2570, read-out: MIC 50

Row | SMILES | MIC50 [1] | MIC50
1 | N=C(NC[C@@H]1CCCN1)NC1[C@@H](O)C(OC2[C@@H](F)[C@H](O[C@H]3OC(CN)[C@@H](O)CC3N)C(N)C[C@H]2NC(=O)[C@@H](O)CCN)O[C@H](CO)[C@H]1O (stereo partly drawn) [ABX5026, Tobra-AHB-F-Gua (S) pyrrolidine-2-yl-methyl] | 32 µmol/L (≈ 22.3 µg/mL) | 
2 | NCCC(O)C(=O)NC1CC(N)C(OC2OC(CN)C(O)C(O)C2N)C(O)C1OC1OC(CO)C(O)C(N)C1O (centres unmarked) [ABX4001, KanaB-AHB] |  | 32 to 64 µmol/L
3 | NCC[C@H](O)C(=O)N[C@@H]1CC(N)[C@@H](O[C@H]2OC(CN)[C@@H](O)[C@@H](O)C2N)[C@H](O)C1OC1O[C@H](CO)[C@@H](O)C(N)[C@H]1O (stereo partly drawn) [ABX4002, 3′Epi-KanaB-AHB] |  | 16 to 32 µmol/L
4 | NCCC(O)C(=O)NC1CC(N)C(OC2OC(CN)C(O)C(O)C2N)C(F)C1OC1OC(CO)C(O)C(N)C1O (centres unmarked) [ABX4007, KanaB-AHB-F] |  | 32 to 64 µmol/L
5 | N=C(NCC1CCOC1)NC1[C@@H](O)C(OC2[C@@H](F)[C@H](O[C@H]3OC(CN)[C@@H](O)CC3N)C(N)C[C@H]2NC(=O)[C@@H](O)CCN)O[C@H](CO)[C@H]1O (some centres unmarked) [ABX5051, Tobra-AHB-F-Gua tetrahydrofuran-3-yl methyl] | 8 µmol/L (≈ 5.57 µg/mL) | 
